Like-named read-outs stand apart in the source and are kept apart here.
Experiments:
[1] = tested on: conditioned avoidance responding; experiment: Conditioned avoidance, shelf-jump response; format: in vivo, rat (male CD, Charles River); details: Rattus norvegicus, ip; single dose 40 mg/kg
Source text: (§1) The antipsychotic properties of the compounds of this invention were established by standard pharmacologically accepted procedures involving conditioned avoidance studies in which trained male CD rats (Charles River), 400-450 g. body weight are exposed to a fifteen second warning tone (conditioned stimulus) continued for an additional fifteen seconds accompanied by electric shock. The rat can avoid the electric shock by jumping to an exposed shelf (shelf-jump response). A response during the initial warning tone is considered an avoidance response, while a response during shock delivery is considered as escape response. The shelf-jump response test procedure follows that of Herman et al., Comm. in Psychopharm., 3, pp. 165-171 (1979). The compounds of this invention were tested at a single dose (40 mg./kg. i.p.) in this procedure and were rated relative to their inhibition of conditioned avoidance responding. A similar test procedure (Discrete Trial) in which a lever press was substituted for a shelf-jump was used to establish the oral (p.o.) activity of the test compounds. Orally active compounds were tested over a full dose range and the Avoidance Block activities reported as "AB50 's" (mg./kg.).

[2] = tested on: conditioned avoidance responding; experiment: Conditioned avoidance, Discrete Trial (lever press); format: in vivo, rat (male CD, Charles River); details: for Conditioned Avoidance, Discrete Trial AB50: p.o.
Source text: as §1

[3] = tested on: apomorphine-induced stereotyped behavior and climbing; experiment: Antagonism of apomorphine-induced stereotyped behavior and climbing; format: in vivo, mouse (CF-1, Charles River); details: apomorphine 1 mg/kg s.c.; for ED50: Mus musculus, po; for Apomorphine Antagonism, Stereotypy ED50: p.o.
Experimental: Readings are repeated every five minutes during a thirty minute test session. […] The ratio of the ED50 for stereotyped behavior of the ED50 for climbing is calculated.

[4] = target: T1, D-2 dopamine receptor (Rattus norvegicus, UniProt P61169); experiment: [^3 H] Spiroperidol binding inhibition (D-2 dopamine receptor, homogenized limbic brain tissue); details: 1 μM
T1 construct: from tissue; host or cells: homogenized limbic brain tissue
Source text: The results of this testing with compounds representative of the invention whose production is exemplified, infra, are as follows: […]

[5] = target: T2, 5-HT1A serotonin receptor (Rattus norvegicus, UniProt P19327); experiment: Inhibition of [^3 H] 8-OH DPAT binding
T2 construct: from tissue
T2 sequence (P19327 1-422): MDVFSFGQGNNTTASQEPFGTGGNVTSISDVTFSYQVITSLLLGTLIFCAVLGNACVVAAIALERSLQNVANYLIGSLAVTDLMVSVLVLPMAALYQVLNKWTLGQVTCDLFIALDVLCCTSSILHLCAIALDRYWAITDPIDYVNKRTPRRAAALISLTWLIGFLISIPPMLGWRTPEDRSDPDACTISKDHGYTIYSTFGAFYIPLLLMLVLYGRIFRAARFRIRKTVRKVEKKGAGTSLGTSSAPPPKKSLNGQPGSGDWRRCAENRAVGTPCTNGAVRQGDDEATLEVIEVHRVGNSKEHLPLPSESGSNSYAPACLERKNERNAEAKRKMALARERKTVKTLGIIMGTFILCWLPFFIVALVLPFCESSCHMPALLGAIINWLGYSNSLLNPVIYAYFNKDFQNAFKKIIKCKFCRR
Source text: 8-OH DPAT (dipropylaminotetralin) from the 5-HT1A serotonin receptor by the procedure of Hall et al., J. Neurochem.

[6] = read-out: Apomorphine Antagonism, Climbing ED50
[7] = read-out: Apomorphine Antagonism, Stereotypy ED50

T1 sequence (P61169 whole entry): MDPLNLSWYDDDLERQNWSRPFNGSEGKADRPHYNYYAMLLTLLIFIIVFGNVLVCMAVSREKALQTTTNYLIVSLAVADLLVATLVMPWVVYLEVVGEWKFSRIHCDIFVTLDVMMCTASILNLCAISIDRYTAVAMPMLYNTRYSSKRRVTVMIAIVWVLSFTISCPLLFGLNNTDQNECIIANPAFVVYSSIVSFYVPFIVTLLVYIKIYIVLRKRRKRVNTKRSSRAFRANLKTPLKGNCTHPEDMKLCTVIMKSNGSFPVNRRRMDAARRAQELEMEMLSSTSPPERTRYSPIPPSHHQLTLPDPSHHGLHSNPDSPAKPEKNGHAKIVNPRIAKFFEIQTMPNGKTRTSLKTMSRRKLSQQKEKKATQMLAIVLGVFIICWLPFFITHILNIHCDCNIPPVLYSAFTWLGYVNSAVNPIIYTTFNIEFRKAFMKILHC

| Structure (SMILES) | inhibition in vivo at 40 mg/kg [1] [%] | ED50 ([2]; Rattus norvegicus, po, read-out: Conditioned Avoidance, Discrete Trial AB50) [mg/kg] | ED50 [3, 6] [mg/kg] | ED50 [3, 7] [mg/kg] | inhibition at 1 µM [4] [%] | Ki [5] [nM] | Conditioned Avoidance, Discrete Trial AB50 [2] | Apomorphine Antagonism, Stereotypy ED50 [3] |
| --- | --- | --- | --- | --- | --- | --- | --- | --- |
| O=C1C2CCCC(O2)C(=O)N1CCCCN1CCN(c2cccc(C(F)(F)F)c2)CC1 [Example 19, 3-[4-[4-[3-(Trifluoromethyl)phenyl]-1-piperazinyl]butyl]-9-oxa-3-azabicyclo[3.3.1]nonane-2,4-dione] | ~80 | 27 | 9.06 | 31 | 97 | 15 | – | – |
| CC1(C)C2CCC1C(=O)N(CCCCN1CCN(c3ncccn3)CC1)C2=O [Example 20, 3-[4-[4-(2-Pyrimidinyl)-1-piperazinyl]butyl]-8,8-dimethyl-3-azabicyclo[3.2.1]octane-2,4-dione] | > 20 | – | 0.2 | – | 53 | 16 | inactive | inactive |
| O=C1C2CC=CCC(C2)C(=O)N1CCCCN1CCN(c2ncccn2)CC1 [Example 21, 8-[4-[4-(2-Pyrimidinyl)-1-piperazinyl]butyl]-8-azabicyclo[4.3.1]dec-3-ene-7,9-dione] | > 20 | – | 11.1 | – | 63 | 15 | inactive | inactive |
| O=C1C2CCC(C2)C(=O)N1CCCN1CCN(c2cccc(C(F)(F)F)c2)CC1 [Example 22, 3-[3-[4-[3-(Trifluoromethyl)phenyl]-1-piperazinyl]propyl]-3-azabicyclo[3.2.1]octane-2,4-dione] | ~80 | – | 29.5 | 43.3 | 38 | 4 | weak | – |

From US4748240A, “Psychotropic bicyclic imides” (American Home Products Corporation, priority 1987, dated 1988)
